These are literature values, as cited in patent US9320295B2, “Compositions containing non-polar compounds” (Virun, Inc., priority 2010, dated 2016).

Turning to sucrose dipalmitate, the HLB value is reported as 7.4.

Take sucrose monopalmitate: the HLB value was more than 10.

For sucrose distearate, the HLB value is on record as 3.
